In ChEMBL document CHEMBL1155346, “Synthesis, photochemical E (trans)-->Z (cis) isomerization and antimicrobial activity of 2-chloro-5-methylpyridine-3-olefin derivatives” (2009) one finds zone of inhibition and MIC data, which are given here for eleven compounds.

What all share (type): functional
For test [1], the system named is Rhizopus arrhizus. The experiment in a line: Antifungal activity against Rhizopus oryzae at 150 ug. Particulars: read-out: DIZ.
The test system of test [2] is Aspergillus niger. Description: Antifungal activity against Aspergillus niger at 100 ug. Particulars: read-out: DIZ.
In test [3] the test system is Bacillus subtilis. Description: Antibacterial activity against Bacillus subtilis MTCC 441 by broth dilution method. A general note: Dilution methods test growth across graded concentrations, often in twofold steps.
Test [4] has as its system Candida albicans. The experiment in a line: Antifungal activity against Candida albicans at 150 ug. Particulars: read-out: DIZ.
In test [5] the test system is Aspergillus niger. Description: Antifungal activity against Aspergillus niger at 150 ug. Particulars: read-out: DIZ.
Test [6] relates to Rhizopus arrhizus. Description: Antifungal activity against Rhizopus oryzae at 100 ug. Particulars: read-out: DIZ.
Test [7] concerns Escherichia coli. The experiment in a line: Antibacterial activity against Escherichia coli by broth dilution method.
Test [8] has as its system Staphylococcus aureus. The experiment in a line: Antibacterial activity against Staphylococcus aureus MTCC 11 by broth dilution method.
In test [9] the test system is Pseudomonas aeruginosa. Description: Antibacterial activity against Pseudomonas aeruginosa MTCC 741 by broth dilution method.
Test [10] deals with Candida albicans. The experiment in a line: Antifungal activity against Candida albicans at 100 ug. Particulars: read-out: DIZ.
Test [11] concerns Saccharomyces cerevisiae. The experiment in a line: Antifungal activity against Saccharomyces cerevisiae at 100 ug. Particulars: read-out: DIZ.
Test [12] has as its system Saccharomyces cerevisiae. The experiment in a line: Antifungal activity against Saccharomyces cerevisiae at 150 ug. Particulars: read-out: DIZ.

In brackets after ≈: the same amount, converted by molar mass.

In the case of `Cc1cnc(Cl)c(/C=C\C#N)c1`, the zone of inhibition at 150 µg/disc in test [1] came to 10 mm; in [4], 10 mm; in test [5], 12 mm. Besides, the zone of inhibition at 100 µg/disc in test [2] and in test [6] was 9 mm throughout. The MIC in test [3] was found to be 37.5 µg/mL (≈ 210 µM); in test [7], 37.5 µg/mL (≈ 210 µM); in test [8] it was 75 µg/mL (≈ 420 µM); in [9], 75 µg/mL (≈ 420 µM).
`COC(=O)/C=C\c1cc(C)cnc1Cl`: the zone of inhibition at 150 µg/disc in test [1] worked out at 11 mm; in test [4] it was 13 mm; in test [5], 17 mm. In addition, the zone of inhibition at 100 µg/disc in test [2] came out at 14 mm; in [6] it was 10 mm; in [10] it was 11 mm. For the same compound, the MIC in test [3] turned out to be 37.5 µg/mL (≈ 177 µM); in test [7], 37.5 µg/mL (≈ 177 µM); in test [8] it was 8.12 µg/mL (≈ 38.4 µM); in test [9], 37.5 µg/mL (≈ 177 µM).
With `C[C@@H]1[C@H](O)[C@@H](C)/C=C/C=C/C=C/C=C/C=C/C=C/C=C/[C@H](O[C@@H]2O[C@H](C)[C@@H](O)[C@H](N)[C@@H]2O)C[C@@H]2O[C@](O)(C[C@@H](O)C[C@@H](O)[C@H](O)CC[C@@H](O)C[C@@H](O)CC(=O)O[C@H]1C)C[C@H](O)[C@H]2C(=O)O` [AMPHOTERICIN B], the zone of inhibition at 100 µg/disc in [11] was determined as 22 mm; in [2], 26 mm; in test [6] it was 23 mm; in test [10], 23.5 mm.
Take `Cc1cnc(Cl)c(/C=C/C#N)c1`: the figures for the zone of inhibition at 150 µg/disc in [1], in test [4] and in test [5] were 12 mm, 12 mm and 15 mm, respectively. Also, the zone of inhibition at 100 µg/disc in test [2] was 13 mm; in test [6], 10 mm; in test [10], 10 mm. Further, the minimal inhibitory concentration (MIC) in test [3], in [7], in test [8] and in [9] was 75 µg/mL (≈ 420 µM) throughout.
As to `CC(=O)/C=C\c1cc(C)cnc1Cl`, the zone of inhibition at 150 µg/disc in test [1] stood at 13 mm; in test [4] it was 11 mm; in test [5], 16 mm. The zone of inhibition at 100 µg/disc in test [2] was determined as 14 mm; in [6] it was 11 mm; in test [10], 9 mm. The minimal inhibitory concentration (MIC) was determined as 37.5 µg/mL (≈ 192 µM) in test [3], 37.5 µg/mL (≈ 192 µM) in [7], 75 µg/mL (≈ 383 µM) in test [8] and 37.5 µg/mL (≈ 192 µM) in [9].
For the compound `Cc1cnc(Cl)c(/C=C\CO)c1`, the zone of inhibition at 150 µg/disc was 17 mm in [1], 14 mm in test [4], 16 mm in [5] and 13 mm in test [12]. Moreover, the zone of inhibition at 100 µg/disc in [11] is 11 mm; in test [2], 12 mm; in test [6], 14 mm; in test [10], 11 mm. Further, the MIC in test [3] is 37.5 µg/mL (≈ 204 µM); in test [7], 75 µg/mL (≈ 408 µM); in test [8], 37.5 µg/mL (≈ 204 µM); in test [9], 75 µg/mL (≈ 408 µM).
On to `CC(=O)/C=C/c1cc(C)cnc1Cl`, for which the zone of inhibition at 150 µg/disc in test [1] stood at 13 mm; in test [4], 17 mm; in [5], 14 mm. Moreover, the zone of inhibition at 100 µg/disc is 13 mm in test [2], 12 mm in test [6] and 13 mm in test [10]. Moreover, the minimal inhibitory concentration (MIC) in test [3] was 37.5 µg/mL (≈ 192 µM); in test [7], 75 µg/mL (≈ 383 µM); in test [8], 37.5 µg/mL (≈ 192 µM); in test [9] it was 75 µg/mL (≈ 383 µM).
`COC(=O)/C=C/c1cc(C)cnc1Cl`: the figures for the zone of inhibition at 150 µg/disc in [1], in test [4] and in test [5] were 11 mm, 11 mm and 17 mm, respectively. For the same compound, the zone of inhibition at 100 µg/disc in test [2] stood at 16 mm; in test [6] it was 10 mm; in test [10], 8 mm. Besides, the MIC in test [3] was 37.5 µg/mL (≈ 177 µM); in test [7], 37.5 µg/mL (≈ 177 µM); in test [8], 75 µg/mL (≈ 354 µM); in [9], 75 µg/mL (≈ 354 µM).
With `CC1(C)S[C@@H]2[C@H](NC(=O)Cc3ccccc3)C(=O)N2[C@H]1C(=O)O` [PENICILLIN G], the MIC in test [3] is 1.56 µg/mL (≈ 4.67 µM); in test [7], 12.5 µg/mL (≈ 37.4 µM); in [8] it was 1.56 µg/mL (≈ 4.67 µM); in test [9], 12.5 µg/mL (≈ 37.4 µM).
As for `CN[C@@H]1[C@H](O[C@H]2[C@H](O[C@H]3[C@H](O)[C@@H](O)[C@H](N=C(N)N)[C@@H](O)[C@@H]3N=C(N)N)O[C@@H](C)[C@]2(O)C=O)O[C@@H](CO)[C@H](O)[C@H]1O` [STREPTOMYCIN], the minimum inhibitory concentration (MIC) in test [3] came to 6.25 µg/mL (≈ 10.7 µM); in test [7], 1.56 µg/mL (≈ 2.69 µM); in test [8], 6.25 µg/mL (≈ 10.7 µM); in test [9], 3.12 µg/mL (≈ 5.37 µM).
Turning to `Cc1cnc(Cl)c(/C=C/CO)c1`, the zone of inhibition at 150 µg/disc in test [1] came out at 18 mm; in test [4] it was 15 mm; in test [5], 17 mm; in test [12], 14 mm. Besides, the zone of inhibition at 100 µg/disc in test [11] is 12 mm; in [2] it was 14 mm; in test [6], 16 mm; in test [10] it was 13 mm. Further, the minimal inhibitory concentration (MIC) in test [3] was found to be 37.5 µg/mL (≈ 204 µM); in test [7], 37.5 µg/mL (≈ 204 µM); in test [8], 75 µg/mL (≈ 408 µM); in test [9], 37.5 µg/mL (≈ 204 µM).

Broadly, the MIC is the lowest concentration that inhibits growth of the organism. The low end stands for greater potency, the high end for weaker potency.
